Patent US9815835B2, “Substituted polycyclic carbamolypyridone derivative” (priority 2009, dated 2017)

Experiments:
influenza virus = test: microbe, parasite or virus in culture; assay type: cell-based, influenza virus (MDBK or MDCK cells); conditions: unidentified influenza virus, 72 h, read-out: CPE EC50, effective concentration to achieve 50% CPE inhibition, 3 days incubation, WST-8
[1] = biological target: cap-dependent endonuclease (RNP fraction containing PB1•PB2•PA complex) (Influenza A virus, UniProt P15659); test: biochemical; conditions: RNP from A/WSN/33 virus, capped Cy3/BHQ2 30mer RNA substrate, 60 minutes at room temperature; read-out: CEN IC50

Row | SMILES | EC50 (influenza virus) | IC50 [1]
1 | O=C1c2c(O)c(=O)ccn2N(C2c3ccccc3CSc3ccccc32)CN1[C@@H]1CCN(CCOCc2ccccc2)C1 (stereo partly shown) [Example 286] | 0.121 µM | 0.161 µM
2 | CN1CC[C@@H](N2CN(C3c4ccccc4CSc4ccccc43)n3ccc(=O)c(O)c3C2=O)C1 (stereo partly shown) [Example 287] | 0.268 µM | 0.154 µM
3 | CN1CCC(N2CN(C3c4ccccc4CSc4ccccc43)n3ccc(=O)c(O)c3C2=O)CC1 (stereo not shown) [Example 288] | 0.085 µM | 0.299 µM
4 | O=C1c2c(O)c(=O)ccn2N(C2c3ccccc3CSc3ccccc32)CN1[C@@H]1CCN(CCO)C1 (stereo partly shown) [Example 290] | 0.492 µM | 0.067 µM
5 | CN1CCCC(N2CN(C3c4ccccc4CSc4ccccc43)n3ccc(=O)c(O)c3C2=O)C1 (stereo not shown) [Example 293] | 0.437 µM | 0.29 µM
6 | O=C1c2c(O)c(=O)ccn2N(C2c3ccccc3CSc3ccccc32)CN1CC(F)F (stereo not shown) [Example 294] | 0.018 µM | 0.035 µM
7 | Cc1nnc(CN2CN(C3c4ccccc4CSc4ccccc43)n3ccc(=O)c(O)c3C2=O)o1 (stereo not shown) [Example 295] | 0.334 µM | 0.052 µM
8 | COc1ccc(N2CN(C3c4ccccc4CSc4ccccc43)n3ccc(=O)c(O)c3C2=O)cc1 (stereo not shown) [Example 296] | 0.397 µM | 0.13 µM
9 | COCCN1CN(C2c3ccccc3CSc3ccccc32)n2ccc(=O)c(O)c2C1=O (stereo not shown) [Example 299] | 0.015 µM | 0.05 µM
10 | COCC(C)N1CN(C2c3ccccc3CSc3ccccc32)n2ccc(=O)c(O)c2C1=O (stereo not shown) [Example 300] | 0.021 µM | 0.058 µM
11 | O=C1c2c(O)c(=O)ccn2N(C2c3ccccc3CSc3ccccc32)CN1C1CC1 (stereo not shown) [Example 302] | 0.014 µM | 0.035 µM
12 | O=C1c2c(O)c(=O)ccn2N(C2c3ccccc3CSc3ccccc32)CN1CCF (stereo not shown) [Example 304] | 0.015 µM | 0.018 µM
13 | Cc1cc(CN2CN(C3c4ccccc4CSc4ccccc43)n3ccc(=O)c(O)c3C2=O)no1 (stereo not shown) [Example 305] | 0.103 µM | 0.059 µM
14 | O=C1c2c(O)c(=O)ccn2N(C2c3ccccc3CSc3ccccc32)CN1Cc1ccccn1 (stereo not shown) [Example 307] | 0.095 µM | 0.052 µM
15 | CC(C)(C)N1CN(C2c3ccccc3CSc3ccccc32)n2ccc(=O)c(O)c2C1=O (stereo not shown) [Example 308] | 0.019 µM | 0.072 µM
16 | CCN1CN(C2c3ccccc3CSc3ccccc32)n2ccc(=O)c(O)c2C1=O (stereo not shown) [Example 309] | 0.013 µM | 0.04 µM
17 | CS(=O)(=O)CCN1CN(C2c3ccccc3CSc3ccccc32)n2ccc(=O)c(O)c2C1=O (stereo not shown) [Example 310] | 0.522 µM | 0.108 µM
18 | COCCCN1CN(C2c3ccccc3CSc3ccccc32)n2ccc(=O)c(O)c2C1=O (stereo not shown) [Example 311] | 0.026 µM | 0.04 µM
19 | C[C@H](N1CN(C2c3ccccc3CSc3ccccc32)n2ccc(=O)c(O)c2C1=O)C(C)(C)C (stereo partly shown) [Example 314] | 0.026 µM | 0.149 µM
20 | Cc1noc(CN2CN(C3c4ccccc4CSc4ccccc43)n3ccc(=O)c(O)c3C2=O)n1 (stereo not shown) [Example 315] | 0.115 µM | 0.057 µM
21 | O=C1c2c(O)c(=O)ccn2N(C2c3ccccc3CSc3ccccc32)CN1Cc1nccs1 (stereo not shown) [Example 316] | 0.083 µM | 0.069 µM
22 | COC[C@H](C)N1CN(C2c3ccccc3CSc3ccccc32)n2ccc(=O)c(O)c2C1=O (stereo partly shown) [Example 317] | 0.017 µM | 0.048 µM

Row | SMILES | EC50 (influenza virus) | IC50 [1]
23 | C[C@@H](N1CN(C2c3ccccc3CSc3ccccc32)n2ccc(=O)c(O)c2C1=O)C(C)(C)C (stereo partly shown) [Example 320] | 0.011 µM | 0.045 µM
24 | O=C1c2c(O)c(=O)ccn2N(C2c3ccccc3CSc3ccccc32)CN1C(CF)CF (stereo not shown) [Example 322] | 0.028 µM | 0.113 µM
25 | O=C1c2c(O)c(=O)ccn2N(C2c3ccccc3CSc3ccccc32)CN1[C@@H]1C[C@@H]1F (stereo partly shown) [Example 323] | 0.019 µM | 0.077 µM
26 | O=C1c2c(O)c(=O)ccn2N(C2c3ccccc3CSc3ccccc32)CN1C1CC(F)(F)C1 (stereo not shown) [Example 324] | 0.035 µM | 0.107 µM
27 | CC(C)N1CN(C2c3ccccc3CSc3cc(Cl)ccc32)n2ccc(=O)c(O)c2C1=O (stereo not shown) [Example 327] | 0.024 µM | 0.092 µM
28 | CC(C)N1CN(C2c3ccccc3CSc3ccc(F)cc32)n2ccc(=O)c(O)c2C1=O (stereo not shown) [Example 329] | 0.023 µM | 0.058 µM
29 | CCN1CN(C2c3ccccc3CSc3c(Cl)cccc32)n2ccc(=O)c(O)c2C1=O (stereo not shown) [Example 330] | 0.019 µM | 0.026 µM
30 | CN1CN(C2c3ccccc3CSc3ccc(Cl)cc32)n2ccc(=O)c(O)c2C1=O (stereo not shown) [Example 331] | 0.335 µM | 0.045 µM
31 | COCCN1CN(C2c3ccccc3CSc3ccc(Cl)cc32)n2ccc(=O)c(O)c2C1=O (stereo not shown) [Example 333] | 0.425 µM | 0.021 µM
32 | COCCN1CN(C2c3ccccc3CSc3cc(Cl)ccc32)n2ccc(=O)c(O)c2C1=O (stereo not shown) [Example 334] | 0.032 µM | 0.075 µM
33 | COCCN1CN(C2c3ccccc3CSc3c(Cl)cccc32)n2ccc(=O)c(O)c2C1=O (stereo not shown) [Example 335] | 0.016 µM | 0.019 µM
34 | COCCN1CN(C2c3ccccc3CSc3cc(F)ccc32)n2ccc(=O)c(O)c2C1=O (stereo not shown) [Example 337] | 0.028 µM | 0.058 µM
35 | COCCN1CN(C2c3ccccc3CSc3ccc(F)cc32)n2ccc(=O)c(O)c2C1=O (stereo not shown) [Example 338] | 0.085 µM | 0.074 µM
36 | O=C1c2c(O)c(=O)ccn2N(C2c3ccccc3CSc3c(Cl)cccc32)CN1C1CC1 (stereo not shown) [Example 341] | 0.027 µM | 0.016 µM
37 | CC(N1CN(C2c3ccccc3CSc3c(Cl)cccc32)n2ccc(=O)c(O)c2C1=O)C(F)(F)F (stereo not shown) [Example 343] | 0.018 µM | 0.122 µM
38 | CC(C)N1CN(C2c3cc(F)ccc3CSc3ccc(F)cc32)n2ccc(=O)c(O)c2C1=O (stereo not shown) [Example 346] | 0.018 µM | 0.028 µM
39 | CN1CN(C2c3ccccc3CSc3c(Cl)cccc32)n2ccc(=O)c(O)c2C1=O (stereo not shown) [Example 347] | 0.017 µM | 0.014 µM
40 | CN1CN(C2c3ccccc3CSc3ccc(F)cc32)n2ccc(=O)c(O)c2C1=O (stereo not shown) [Example 349] | 0.075 µM | 0.053 µM
41 | CN1CN(C2c3ccccc3CSc3cc(F)ccc32)n2ccc(=O)c(O)c2C1=O (stereo not shown) [Example 355] | 0.075 µM | 0.04 µM
42 | Cc1ccc2c(c1)C(N1CN(C(C)C)C(=O)c3c(O)c(=O)ccn31)c1ccccc1CS2 (stereo not shown) [Example 357] | 0.386 µM | 0.138 µM
43 | Cc1ccc(C)c2c1SCc1ccccc1C2N1CN(C(C)C)C(=O)c2c(O)c(=O)ccn21 (stereo not shown) [Example 358] | 0.069 µM | 0.051 µM
44 | O=C1c2c(O)c(=O)ccn2N(C2c3ccccc3CSc3ccccc32)CN1CCO (stereo not shown) [Example 360] | 0.087 µM | 0.042 µM

Row | SMILES | EC50 (influenza virus) | IC50 [1]
45 | O=C1c2c(O)c(=O)ccn2N(C2c3ccccc3CCc3ccccc32)CN1CCO [Example 361] | 0.145 µM | 0.039 µM
46 | CC(CO)N1CN(C2c3ccccc3CSc3ccccc32)n2ccc(=O)c(O)c2C1=O (stereo not shown) [Example 363] | 0.067 µM | 0.058 µM
47 | O=C1c2c(O)c(=O)ccn2N(C2c3ccccc3CSc3ccccc32)CN1CC(O)CO (stereo not shown) [Example 365] | 2.25 µM | 0.041 µM
48 | O=C1c2c(O)c(=O)ccn2N(C2c3ccccc3CSc3ccccc32)CN1C(CO)CO (stereo not shown) [Example 366] | 0.838 µM | 0.09 µM
49 | CC(CO)N1CN(C(c2ccccc2)c2ccccc2)n2ccc(=O)c(O)c2C1=O (stereo not shown) [Example 368] | 0.47 µM | 0.14 µM
50 | CC(CCO)N1CN(C(c2ccccc2)c2ccccc2)n2ccc(=O)c(O)c2C1=O (stereo not shown) [Example 369] | 0.434 µM | 0.294 µM
51 | CC(C)(O)CN1CN(C2c3ccccc3CCc3ccccc32)n2ccc(=O)c(O)c2C1=O [Example 370] | 0.061 µM | 0.113 µM
52 | CC(C)(O)CN1CN(C2c3ccccc3CSc3ccccc32)n2ccc(=O)c(O)c2C1=O (stereo not shown) [Example 371] | 0.074 µM | 0.161 µM
53 | O=C1c2c(O)c(=O)ccn2N(C2c3ccccc3CSc3ccccc32)CN1CC1(O)CCCCC1 (stereo not shown) [Example 372] | 0.146 µM | 0.164 µM
54 | O=C1c2c(O)c(=O)ccn2N(C2c3ccccc3CSc3ccccc32)CN1[C@H](CO)c1ccccc1 (stereo partly shown) [Example 376] | 0.092 µM | 0.063 µM
55 | CC(C)[C@@H](CO)N1CN(C2c3ccccc3CSc3ccccc32)n2ccc(=O)c(O)c2C1=O (stereo partly shown) [Example 378] | 0.022 µM | 0.047 µM
56 | CC(C)N1CN(C2c3ccccc3CCc3c(CO)cccc32)n2ccc(=O)c(O)c2C1=O (stereo not shown) [Example 384] | 0.293 µM | 0.153 µM
57 | CC(C)N1CN([C@@H]2c3ccccc3[C@@H]3[C@H](c4ccccc42)C3(F)F)n2ccc(=O)c(O)c2C1=O [Example 386] | 0.096 µM | 0.075 µM
58 | CC(C)N1CN(C2c3ccccc3NC(=O)c3ccccc32)n2ccc(=O)c(O)c2C1=O (stereo not shown) [Example 387] | 1.15 µM | 0.3 µM
59 | CC(C)N1CN(C2c3ccccc3CCc3ccsc32)n2ccc(=O)c(O)c2C1=O (stereo not shown) [Example 388] | 0.063 µM | 0.133 µM
60 | CC(C)N1CN(C2c3ccccc3COc3c(Cl)cccc32)n2ccc(=O)c(O)c2C1=O (stereo not shown) [Example 390] | 0.029 µM | 0.095 µM
61 | O=C1c2c(O)c(=O)ccn2N(C2c3ccccc3COc3ccccc32)CN1C1CC1 (stereo not shown) [Example 392] | 0.025 µM | 0.153 µM
62 | COCCN1CN(C2c3ccccc3COc3ccccc32)n2ccc(=O)c(O)c2C1=O (stereo not shown) [Example 394] | 0.064 µM | 0.087 µM
63 | CN1CN(C2c3ccccc3COc3ccccc32)n2ccc(=O)c(O)c2C1=O (stereo not shown) [Example 395] | 0.089 µM | 0.043 µM
64 | CC(C)N1CN(C2c3ccccc3COc3ccc(Cl)cc32)n2ccc(=O)c(O)c2C1=O (stereo not shown) [Example 398] | 0.118 µM | 0.034 µM
65 | CC(C)N1CN(C2c3ccccc3COc3cc(F)ccc32)n2ccc(=O)c(O)c2C1=O (stereo not shown) [Example 399] | 0.061 µM | 0.105 µM
